# Test system: promyelocytic leukemia cell strain HL-60
# Test: Cell differentiation inducing activity of retinoids on HL-60 in presence/absence of test compound (NBT reduction)
# Format: cell-based
# Experimental: The effects of the compounds of the above Examples 1 and 2 on cell differentiation induced by retinoids were studied. As retinoid compounds (i.e., agonists against the all-trans retinoic acid receptor), retinoic acid and Am80 (4-[(5,6,7,8-tetrahydro-5,5,8,8-tetramethyl-2-naphthalenyl)carbamoyl]benzoic acid) were used. Cell differentiation inducing activities of the above retinoids on promyelocytic leukemia cell strain HL-60 were measured in the presence and absence of the compounds of Examples 1 and 2 according to the method described in the Japanese Patent Unexamined Publication (KOKAI) No.(Sho)61-76440/1986. The degrees of the differentiation into granulocytic cell were determined by observing nuclear morphologies and measuring abilities to reduce nitroblue tetrazolium (NBT). This method is well known in the art as a test that enables accurate evaluation of the cell differentiation inducing activity of retinoids. The results are shown in the Table 2 set out below (in the table, NTB positive ratio represents a percent value of differentiated cells based on living cells).
# Effect of the compound of Example 10 (HX801) on the cell differentiation inducing activity by a retinoid was examined. Am80 was used as the retinoid compound and the cell differentiation inducing activity of the above retinoid on promyelocytic leukemia cell strain HL-60 was determined in the presence or absence of the compound of HX801 in the same manner as Example 15. The results are shown in the Table 3 set out below (in the table, the symbol “-” indicates no addition).
smiles,measurement,setting,value
"CC1(C)CCC(C)(C)c2cc(NC(=O)c3ccc(C(=O)O)cc3)ccc21 [Am80, 4-[(5,6,7,8-tetrahydro-5,5,8,8-tetramethyl-2-naphthalenyl)carbamoyl]benzoic acid, reference compound]",NBT positive ratio,"Am80 1.0 × 10^−8 M alone, test compound absent (HX600 series)",55%
same,NBT positive ratio,"Am80 1.0 × 10^−8 M alone, test compound absent (LE135 series)",55%
same,NBT positive ratio,"Am80 1.1 × 10^−9 M alone, test compound absent (HX600 series)",44%
same,NBT positive ratio,"Am80 1.1 × 10^−9 M alone, test compound absent (LE135 series)",35%
same,NBT positive ratio,"Am80 3.3 × 10^−9 M alone, test compound absent (HX600 series)",53%
same,NBT positive ratio,"Am80 3.3 × 10^−9 M alone, test compound absent (LE135 series)",51%
same,NBT positive ratio,"Am80 3.7 × 10^−10 M alone, test compound absent (HX600 series)",15%
same,NBT positive ratio,"Am80 3.7 × 10^−10 M alone, test compound absent (LE135 series)",21%
same,NBT positive ratio,"Table 3: Am80 1.0 × 10^−9 M alone, no HX801",48%
same,NBT positive ratio,"Table 3: Am80 1.1 × 10^−10 M alone, no HX801",5%
same,NBT positive ratio,"Table 3: Am80 1.2 × 10^−11 M alone, no HX801",0.6%
same,NBT positive ratio,"Table 3: Am80 3.3 × 10^−10 M alone, no HX801",30%
same,NBT positive ratio,"Table 3: Am80 3.7 × 10^−11 M alone, no HX801",3%
"CN1c2ccccc2N=C(c2ccc(C(=O)O)cc2)c2cc3c(cc21)C(C)(C)CCC3(C)C [HX600, 4-[5H-2,3-(2,5-dimethyl-2,5-hexano)-5-methyldibenzo-[b,e][1,4]diazepine-11-yl]benzoic acid]",NBT positive ratio,Am80 1.0 × 10^−8 M + test compound 1.0 × 10^−6 M (HX600 series),95%
same,NBT positive ratio,Am80 1.0 × 10^−8 M + test compound 1.0 × 10^−7 M,91%
same,NBT positive ratio,Am80 1.0 × 10^−8 M + test compound 1.0 × 10^−8 M,80%
same,NBT positive ratio,Am80 1.0 × 10^−8 M + test compound 1.0 × 10^−9 M,69%
same,NBT positive ratio,Am80 1.1 × 10^−9 M + test compound 1.0 × 10^−6 M (HX600 series),93%
same,NBT positive ratio,Am80 1.1 × 10^−9 M + test compound 1.0 × 10^−7 M,90%
same,NBT positive ratio,Am80 1.1 × 10^−9 M + test compound 1.0 × 10^−8 M,65%
same,NBT positive ratio,Am80 1.1 × 10^−9 M + test compound 1.0 × 10^−9 M,48%
same,NBT positive ratio,Am80 3.3 × 10^−9 M + test compound 1.0 × 10^−6 M (HX600 series),93%
same,NBT positive ratio,Am80 3.3 × 10^−9 M + test compound 1.0 × 10^−7 M,93%
same,NBT positive ratio,Am80 3.3 × 10^−9 M + test compound 1.0 × 10^−8 M,73%
same,NBT positive ratio,Am80 3.3 × 10^−9 M + test compound 1.0 × 10^−9 M,64%
same,NBT positive ratio,Am80 3.7 × 10^−10 M + test compound 1.0 × 10^−6 M (HX600 series),67%
same,NBT positive ratio,Am80 3.7 × 10^−10 M + test compound 1.0 × 10^−7 M,72%
same,NBT positive ratio,Am80 3.7 × 10^−10 M + test compound 1.0 × 10^−8 M,41%
same,NBT positive ratio,Am80 3.7 × 10^−10 M + test compound 1.0 × 10^−9 M,21%
same,NBT positive ratio,Retinoic acid 1.0 × 10^−8 M + test compound 1.0 × 10^−6 M,91%
same,NBT positive ratio,Retinoic acid 1.0 × 10^−8 M + test compound 1.1 × 10^−7 M,91%
same,NBT positive ratio,Retinoic acid 1.0 × 10^−8 M + test compound 3.3 × 10^−7 M,91%
same,NBT positive ratio,Retinoic acid 1.1 × 10^−9 M + test compound 1.0 × 10^−6 M,69%
same,NBT positive ratio,Retinoic acid 1.1 × 10^−9 M + test compound 1.1 × 10^−7 M,68%
same,NBT positive ratio,Retinoic acid 1.1 × 10^−9 M + test compound 3.3 × 10^−7 M,76%
same,NBT positive ratio,Retinoic acid 3.3 × 10^−9 M + test compound 1.0 × 10^−6 M,90%
same,NBT positive ratio,Retinoic acid 3.3 × 10^−9 M + test compound 1.1 × 10^−7 M,86%
same,NBT positive ratio,Retinoic acid 3.3 × 10^−9 M + test compound 3.3 × 10^−7 M,90%
"CC1(C)CCC(C)(C)c2cc3c(cc21)Cc1ccccc1N=C3c1ccc(C(=O)O)cc1 [HX640, 4-[2,3-(2,5-dimethyl-2,5-hexano)-dibenzo[b,e]azepine-11-yl]benzoic acid]",NBT positive ratio,Am80 1.1 × 10^−10 M + test compound 1.0 × 10^−7 M,69%
same,NBT positive ratio,Am80 1.1 × 10^−10 M + test compound 1.0 × 10^−8 M,24%
same,NBT positive ratio,Am80 1.1 × 10^−10 M + test compound 1.0 × 10^−9 M,5%
same,NBT positive ratio,Am80 1.1 × 10^−10 M + test compound 1.0 × 10^−10 M,7%
same,NBT positive ratio,Am80 3.3 × 10^−10 M + test compound 1.0 × 10^−6 M,85%
same,NBT positive ratio,Am80 3.3 × 10^−10 M + test compound 1.0 × 10^−7 M,89%
same,NBT positive ratio,Am80 3.3 × 10^−10 M + test compound 1.0 × 10^−8 M,75%
same,NBT positive ratio,Am80 3.3 × 10^−10 M + test compound 1.0 × 10^−9 M,46%
same,NBT positive ratio,Am80 3.3 × 10^−10 M + test compound 1.0 × 10^−10 M,44%
"CN1C(=O)CN=C(c2ccc(C(=O)O)cc2)c2cc3c(cc21)C(C)(C)CCC3(C)C [HX801, 4-[1,3-dihydro-7,8-(2,5-dimethyl-2,5-hexano)-1-methyl-2-oxo-2H-1,4-benzodiazepine-5-yl]benzoic acid]",NBT positive ratio,Table 3: Am80 1.0 × 10^−9 M + HX801 1.0 × 10^−6 M,77%
same,NBT positive ratio,Table 3: Am80 1.0 × 10^−9 M + HX801 1.1 × 10^−7 M,63%
same,NBT positive ratio,Table 3: Am80 1.0 × 10^−9 M + HX801 3.3 × 10^−7 M,76%
same,NBT positive ratio,Table 3: Am80 1.1 × 10^−10 M + HX801 1.0 × 10^−6 M,48%
same,NBT positive ratio,Table 3: Am80 1.1 × 10^−10 M + HX801 1.1 × 10^−7 M,22%
same,NBT positive ratio,Table 3: Am80 1.1 × 10^−10 M + HX801 3.3 × 10^−7 M,28%
same,NBT positive ratio,Table 3: Am80 1.2 × 10^−11 M + HX801 1.0 × 10^−6 M,2%
same,NBT positive ratio,Table 3: Am80 1.2 × 10^−11 M + HX801 1.1 × 10^−7 M,1.4%
same,NBT positive ratio,Table 3: Am80 1.2 × 10^−11 M + HX801 3.3 × 10^−7 M,2%
same,NBT positive ratio,Table 3: Am80 3.3 × 10^−10 M + HX801 1.0 × 10^−6 M,71%
same,NBT positive ratio,Table 3: Am80 3.3 × 10^−10 M + HX801 1.1 × 10^−7 M,49%
same,NBT positive ratio,Table 3: Am80 3.3 × 10^−10 M + HX801 3.3 × 10^−7 M,55%
same,NBT positive ratio,Table 3: Am80 3.7 × 10^−11 M + HX801 1.0 × 10^−6 M,4.4%
same,NBT positive ratio,Table 3: Am80 3.7 × 10^−11 M + HX801 1.1 × 10^−7 M,4%
same,NBT positive ratio,Table 3: Am80 3.7 × 10^−11 M + HX801 3.3 × 10^−7 M,2.3%
same,NBT positive ratio,"Table 3: HX801 1.0 × 10^−6 M alone, no Am80",1.1%
same,NBT positive ratio,"Table 3: HX801 1.1 × 10^−7 M alone, no Am80",1.1%
same,NBT positive ratio,"Table 3: HX801 3.3 × 10^−7 M alone, no Am80",0.3%
"CN1c2cc3c(cc2N=C(c2ccc(C(=O)O)cc2)c2ccccc21)C(C)(C)CCC3(C)C [LE135, 4-(5H-7,8,9,10-tetrahydro-5,7,7,10,10-pentamethylbenzo[e]naphto[2,3-b][1,4]diazepin-13-yl)benzoic acid, reference compound]",NBT positive ratio,Am80 1.0 × 10^−8 M + test compound 1.0 × 10^−6 M (LE135 series),34%
same,NBT positive ratio,Am80 1.0 × 10^−8 M + test compound 1.1 × 10^−7 M,62%
same,NBT positive ratio,Am80 1.0 × 10^−8 M + test compound 3.3 × 10^−7 M,51%
same,NBT positive ratio,Am80 1.1 × 10^−9 M + test compound 1.0 × 10^−6 M (LE135 series),2%
same,NBT positive ratio,Am80 1.1 × 10^−9 M + test compound 1.1 × 10^−7 M,23%
same,NBT positive ratio,Am80 1.1 × 10^−9 M + test compound 3.3 × 10^−7 M,5%
same,NBT positive ratio,Am80 3.3 × 10^−9 M + test compound 1.0 × 10^−6 M (LE135 series),14%
same,NBT positive ratio,Am80 3.3 × 10^−9 M + test compound 1.1 × 10^−7 M,54%
same,NBT positive ratio,Am80 3.3 × 10^−9 M + test compound 3.3 × 10^−7 M,32%
same,NBT positive ratio,Am80 3.7 × 10^−10 M + test compound 1.0 × 10^−6 M (LE135 series),1.3%
same,NBT positive ratio,Am80 3.7 × 10^−10 M + test compound 1.1 × 10^−7 M,3%
same,NBT positive ratio,Am80 3.7 × 10^−10 M + test compound 3.3 × 10^−7 M,1.2%
same,cell differentiation inducing activity of Am80,compound coexisting with Am80,significantly suppressed
"CC1=C(/C=C/C(C)=C/C=C/C(C)=C/C(=O)O)C(C)(C)CCC1 [Retinoic acid, retinoic acid, reference compound]",NBT positive ratio,"Retinoic acid 1.0 × 10^−8 M alone, test compound absent",54%
same,NBT positive ratio,"Retinoic acid 1.1 × 10^−9 M alone, test compound absent",14%
same,NBT positive ratio,"Retinoic acid 3.3 × 10^−9 M alone, test compound absent",36%

# From patent US6476017B2, “Compounds activating pharmacological effect of retinoids” (Institute of Medicinal Molecular Design, Inc., priority 1995, dated 2002)
